Experimental data published in PubChem BioAssay AID1963836 (Molecular Pharmacology Branch, DTP, NCI, 2024).

Test system: 857933-349-R-J2-PDC complex spheroid viability
Assay: Anticancer human tumor 857933-349-R-J2-PDC patient-derived colon adenocarcinoma cell line growth inhibition [POLQ]
Settings: for IC50: curve of first compound; for viability, T/C: stronger effect = lower value
Outline: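 Patient-derived tumour cells were co-cultured with HUVEC and mesenchymal stem cells as multicellular spheroids at 37 °C. They were treated with POLQ inhibitors (novobiocin, ART-558, RP6685) alone or combined with other agents. Top concentrations were at or near clinical Cmax (otherwise 10 microM; SN-38 at 1 microM), decreasing in half-log steps.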
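Also: spheroids exposed to compounds for seven days before readout.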

## O=c1[nH]cc(F)c(=O)[nH]1 + COC1C(OC(N)=O)C(O)C(Oc2ccc3c(O)c(NC(=O)c4ccc(O)c(CC=C(C)C)c4)c(=O)oc3c2C)OC1(C)C
Second compound 0.0316 µM
  IC50: 1960 nM
Second compound 0.1 µM
  IC50: 1640 nM
Second compound 0.316 µM
  IC50: 2270 nM
Second compound 1 µM
  IC50: 2220 nM
Second compound 3.16 µM
  IC50: 2760 nM
Second compound 10 µM
  IC50: 2560 nM
Second compound 0.0316 µM, first compound 0.0316 µM
  viability, T/C: 81.7%
Second compound 0.0316 µM, first compound 0.1 µM
  viability, T/C: 110%
Second compound 0.0316 µM, first compound 0.316 µM
  viability, T/C: 125%
Second compound 0.0316 µM, first compound 1 µM
  viability, T/C: 71.1%
Second compound 0.0316 µM, first compound 3.16 µM
  viability, T/C: 45.5%
Second compound 0.0316 µM, first compound 10 µM
  viability, T/C: 24.6%
Second compound 0.1 µM, first compound 0.0316 µM
  viability, T/C: 87.3%
Second compound 0.1 µM, first compound 0.1 µM
  viability, T/C: 91.5%
Second compound 0.1 µM, first compound 0.316 µM
  viability, T/C: 92.2%
Second compound 0.1 µM, first compound 1 µM
  viability, T/C: 58.1%
Second compound 0.1 µM, first compound 3.16 µM
  viability, T/C: 44.7%
Second compound 0.1 µM, first compound 10 µM
  viability, T/C: 30.3%
Second compound 0.316 µM, first compound 0.0316 µM
  viability, T/C: 99.3%
Second compound 0.316 µM, first compound 0.1 µM
  viability, T/C: 87.2%
Second compound 0.316 µM, first compound 0.316 µM
  viability, T/C: 88.8%
Second compound 0.316 µM, first compound 1 µM
  viability, T/C: 70.9%
Second compound 0.316 µM, first compound 3.16 µM
  viability, T/C: 41%
Second compound 0.316 µM, first compound 10 µM
  viability, T/C: 28.4%
Second compound 1 µM, first compound 0.0316 µM
  viability, T/C: 109%
Second compound 1 µM, first compound 0.1 µM
  viability, T/C: 92.1%
Second compound 1 µM, first compound 0.316 µM
  viability, T/C: 97.3%
Second compound 1 µM, first compound 1 µM
  viability, T/C: 63.8%
Second compound 1 µM, first compound 3.16 µM
  viability, T/C: 44.5%
Second compound 1 µM, first compound 10 µM
  viability, T/C: 30%
Second compound 3.16 µM, first compound 0.0316 µM
  viability, T/C: 79.7%
Second compound 3.16 µM, first compound 0.1 µM
  viability, T/C: 86.3%
Second compound 3.16 µM, first compound 0.316 µM
  viability, T/C: 82.3%
Second compound 3.16 µM, first compound 1 µM
  viability, T/C: 85.3%
Second compound 3.16 µM, first compound 3.16 µM
  viability, T/C: 45.5%
Second compound 3.16 µM, first compound 10 µM
  viability, T/C: 29.3%
Second compound 10 µM, first compound 0.0316 µM
  viability, T/C: 108%
Second compound 10 µM, first compound 0.1 µM
  viability, T/C: 74.4%
Second compound 10 µM, first compound 0.316 µM
  viability, T/C: 76.3%
Second compound 10 µM, first compound 1 µM
  viability, T/C: 76.2%
Second compound 10 µM, first compound 3.16 µM
  viability, T/C: 42.2%
Second compound 10 µM, first compound 10 µM
  viability, T/C: 29.3%
